According to ChEMBL document CHEMBL1146881, “Improved replicon cellular activity of non-nucleoside allosteric inhibitors of HCV NS5B polymerase: from benzimidazole to indole scaffolds” (Bioorg Med Chem Lett, 2006):
Activity calls are given as the source filed them. The rule behind the calls is not given here.

What was measured:
[1] = molecular target: RNA-directed RNA polymerase (Hepacivirus hominis, UniProt O39930); assay: Inhibition of HCV 1b NS5B delta21 RNA dependent RNA polymerase by SPA; set-up: species or system Hepatitis C virus subtype 1b
Chain of RNA-directed RNA polymerase (O39930 whole entry): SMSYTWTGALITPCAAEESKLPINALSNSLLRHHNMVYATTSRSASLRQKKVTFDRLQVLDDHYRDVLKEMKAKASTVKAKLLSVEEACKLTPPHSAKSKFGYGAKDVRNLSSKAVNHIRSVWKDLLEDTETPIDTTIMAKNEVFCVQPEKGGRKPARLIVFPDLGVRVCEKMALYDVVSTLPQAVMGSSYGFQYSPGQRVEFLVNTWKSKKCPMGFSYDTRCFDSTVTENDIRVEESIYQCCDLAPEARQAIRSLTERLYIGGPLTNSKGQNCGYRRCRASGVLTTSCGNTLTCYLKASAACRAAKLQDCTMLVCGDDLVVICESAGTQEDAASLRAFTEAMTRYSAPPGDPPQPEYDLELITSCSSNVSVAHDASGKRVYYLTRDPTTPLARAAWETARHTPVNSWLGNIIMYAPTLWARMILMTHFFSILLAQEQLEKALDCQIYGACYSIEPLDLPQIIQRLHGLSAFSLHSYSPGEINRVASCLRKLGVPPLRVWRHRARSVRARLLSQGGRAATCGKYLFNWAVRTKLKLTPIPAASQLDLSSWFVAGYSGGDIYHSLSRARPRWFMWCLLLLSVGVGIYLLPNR

Hepatitis C virus = assay: Inhibition of HCV RNA replication by replicon assay; type: functional, organism-based, Hepacivirus hominis; details: for Activity: Hepacivirus hominis
Genome polyprotein = Genome polyprotein (Human poliovirus 1 Mahoney, UniProt P03300); assay: Inhibition of poliovirus RNA dependent RNA polymerase; set-up: species or system Enterovirus C
Chain of Genome polyprotein (P03300 1749-2209 limits assumed): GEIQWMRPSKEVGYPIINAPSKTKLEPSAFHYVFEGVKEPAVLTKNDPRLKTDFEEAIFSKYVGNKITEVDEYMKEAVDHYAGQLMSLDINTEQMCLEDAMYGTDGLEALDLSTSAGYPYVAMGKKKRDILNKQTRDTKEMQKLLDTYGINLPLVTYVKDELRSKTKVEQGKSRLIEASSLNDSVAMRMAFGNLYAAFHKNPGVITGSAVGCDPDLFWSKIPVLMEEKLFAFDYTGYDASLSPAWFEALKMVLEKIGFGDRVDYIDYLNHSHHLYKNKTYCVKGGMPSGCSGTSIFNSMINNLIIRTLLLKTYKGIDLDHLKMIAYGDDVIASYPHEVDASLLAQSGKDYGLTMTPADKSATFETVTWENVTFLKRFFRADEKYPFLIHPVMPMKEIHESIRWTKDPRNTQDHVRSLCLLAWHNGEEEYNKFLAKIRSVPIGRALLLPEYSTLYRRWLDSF

Row | Structure (SMILES) | IC50 [1] | EC50 (Hepatitis C virus) | Activity (Hepatitis C virus) | IC50 (Genome polyprotein)
1 | O=C(O)c1ccc2c(C3CCCC3)c(-c3ccoc3)sc2c1 | 78 nM | 22 µM | – | –
2 | Cn1c(-c2ccoc2)c(C2CCCC2)c2ccc(C(=O)O)c(C(=O)O)c21 | 5300 nM | – | – | –
3 | O=C(O)c1ccc2c(c1)nc(-c1ccoc1)n2C1CCCCC1 | 1100 nM | – | inactive | –
4 | O=C(O)c1ccc2c(c1)nc(-c1ccccn1)n2C1CCCCC1 | 2700 nM | – | inactive | –
5 | Cn1c(-c2ccccn2)c(C2CCCCC2)c2ccc(C(=O)O)cc21 | 90 nM | 3.9 µM | – | –
6 | O=C(O)c1ccc2c(C3CCCCC3)c(-c3ccoc3)[nH]c2c1 | 30 nM | 6.7 µM | – | > 125 µM
7 | Cn1c(-c2ccoc2)c(C2CCCCC2)c2ccc(C(=O)O)nc21 | 51 nM | – | – | –
8 | O=C(O)c1ccc2c(C3CCCC3)c(-c3ccoc3)oc2c1 | 81 nM | 21 µM | – | –
9 | Cn1c(-c2ccccc2)c(C2CCCCC2)c2ccc(C(=O)O)nc21 | 80 nM | 2.2 µM | – | –
10 | Cn1c(-c2ccccc2)c(C2CCCCC2)c2ccc(C(=O)O)cc21 | 30 nM | 6.6 µM | – | –
11 | Cn1c(-c2ccoc2)c(C2CCCCC2)c2ccc(C(=O)O)cc21 | 16 nM | 4.2 µM | – | 125 µM
12 | O=C(O)c1ccc2c(c1)nc(-c1ccccc1)n2C1CCCCC1 | 3100 nM | – | inactive | –
13 | O=C(O)/C=C/c1cc(C2CCCCC2)c(-c2ccccn2)[nH]1 | > 50000 nM | – | – | –
14 | O=C(O)c1ccc2c(C3CCCCC3)c(-c3ccccc3)[nH]c2c1 | 50 nM | > 10 µM | – | –
15 | Cn1c(-c2ccoc2)c(C2CCCC2)c2ccc(C(=O)O)c(O)c21 | 75 nM | 19 µM | – | –
16 | Cc1c(-c2ccoc2)n(C2CCCCC2)c2ccc(C(=O)O)cc12 | 44 nM | > 10 µM | – | –
17 | O=C(O)c1ccc2c(c1)S(=O)(=O)C(c1ccoc1)=C2C1CCCC1 | > 100000 nM | – | – | –
18 | Cc1c(-c2ccccc2)n(C2CCCCC2)c2ccc(C(=O)O)cc12 | 180 nM | > 10 µM | – | –
19 | Cn1c(-c2ccoc2)c(C2CCCC2)c2ccc(C(=O)O)cc21 | 21 nM | 6.6 µM | – | –
20 | O=C(O)c1ccc2c(C3CCCC3)c(-c3ccoc3)[nH]c2c1 | 25 nM | 6.6 µM | – | –
21 | Cc1c(-c2ccccn2)n(C2CCCCC2)c2ccc(C(=O)O)cc12 | 820 nM | > 10 µM | – | –
22 | COc1c(C(=O)O)ccc2c(C3CCCC3)c(-c3ccoc3)n(C)c12 | 340 nM | 40 µM | – | –
23 | Cn1c(-c2ccoc2)c(C2CCCC2)c2ccc(C(=O)O)c(Cl)c21 | 290 nM | 37 µM | – | –
24 | O=C(O)/C=C/c1cc(-c2ccccn2)n(C2CCCCC2)n1 | > 100000 nM | – | – | –
25 | O=C(O)c1ccc2c(c1)nc(-c1ccoc1)n2C1CCCC1 | 2200 nM | – | inactive | –
26 | O=C(O)c1ccc2c(C3CCCCC3)c(-c3ccccn3)[nH]c2c1 | 230 nM | > 10 µM | – | –
27 | COC(=O)c1c(C(=O)O)ccc2c(C3CCCC3)c(-c3ccoc3)n(C)c12 | 480 nM | 22 µM | – | –
